In patent US12528801B2 (Givaudan SA, priority 2019, dated 2026):
Each block holds one compound with its values, some of them ahead of it.

Experiments:
hTRPM8 = target: T1, hTRPM8 (Homo sapiens, UniProt Q7Z2W7); assay: Assay on TRPM8 modulators: calcium imaging (Fluo-4, Flexstation) in HEK293 cell line stably expressing hTRPM8; format: cell-based; settings: HEK293 cells stably expressing hTRPM8; calcium influx, Fluo-4, Flexstation 3; sigmoidal dose-response fit
T1 construct: expressed in transfected cells
In short: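 HEK293 cells stably expressing hTRPM8 were loaded with Fluo-4 AM plus probenecid and kept in HEPES buffer, pH 7.4. Calcium influx to serially diluted compounds was recorded for 120 s. Maximal activation was referenced to solvent control and 31.6 μM menthol, with EC values from sigmoidal dose-response fits.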

[1] = test system: trained group of panelists; assay: Sensory studies in model dentifrice (trained panel, tooth brushing); format: in vivo, human; settings: 40 ppm in model unflavored dentifrice; for Cooling after 1 h: 1 h after brushing; for Cooling after 1 h / Max. cooling: panel-averaged score 0 to 10; for Time of max. cooling / Max. cooling: brushing with 1 g for 60 seconds; for Max. cooling: stock in propylene glycol (A) or benzyl alcohol (B)
Procedure: The compounds listed in Table 3 were dissolved at a concentration of 1 wt-% in propylene glycol^A or benzyl alcohol^B (respective solvents indicated in Table 3). These solutions were then dispersed in appropriate quantities to obtain the desired final concentration of 40 ppm (parts per million) of the test compound into a model, unflavored dentifrice, the formula of which is given below (ingredients obtained from the suppliers respectively indicated in parenthesis).
A trained group of panelists evaluated the dentifrice containing a compound of formula (I), by brushing their teeth with 1 g of the dentifrice using a toothbrush for 60 seconds, followed by spitting, without rinsing the mouth afterwards for the duration of the evaluation. Panelists evaluated and recorded the cooling performance as well as other sensorial and organoleptic attributes at different timepoints over a period of two hours. Cooling performance was rated on a scale from 0 to 10 with 0 being no effect and 10 being freezing. Scores were averaged for all panelists and the cooling intensity qualified as “none” (score of 0), “low” (score above 0, up to 1), “medium” (score above 1, up to 4) “strong” (score above 4, up to 8) and “freezing” (score above 8), which are summarized below in Table 3.

[2] = test system: trained group of panelists; assay: Sensory studies in aqueous solution (trained panel, mouth swill); format: in vivo, human; settings: 10 ppm in aqueous solution; for Time of max. cooling / Max. cooling: 20 mL swilled in the mouth for 60 seconds; for Max. cooling / Cooling after 1 h: panel-averaged cooling score, scale 0 to 10; for Cooling after 1 h: 1 h after swilling
Procedure: The compounds as listed below in Table 2 were dissolved at a concentration of 1 wt-% in propylene glycol. These solutions were then dispensed in appropriate quantities into deionized water containing 0.5 wt-% Poloxamer 407 (which is a hydrophilic non-ionic surfactant, e.g., commercially available from SigmaAldrich) and 0.25 wt-% Cremaphor® RH40 (obtained from BASF) as solubilizer, to obtain the desired final concentration of 10 ppm (parts per million) of the respective compound.
A trained group of panelists evaluated the aqueous solutions containing test compound by swilling 20 mL of the solution in the mouth for 60 seconds, followed by spitting, without rinsing the mouth afterwards for the duration of the evaluation. Panelists evaluated and recorded the cooling performance as well as other sensorial and organoleptic attributes at different timepoints over a period of two hours. Cooling performance was rated on a scale from 0 to 10 with 0 being no effect and 10 being freezing. Scores were averaged for all panelists and the cooling intensity qualified as “none” (score of 0), “low” (score above 0, up to 1), “medium” (score above 1, up to 4) “strong” (score above 4, up to 8) and “freezing” (score above 8), which are provided in Table 2.

T1 sequence (Q7Z2W7 whole entry): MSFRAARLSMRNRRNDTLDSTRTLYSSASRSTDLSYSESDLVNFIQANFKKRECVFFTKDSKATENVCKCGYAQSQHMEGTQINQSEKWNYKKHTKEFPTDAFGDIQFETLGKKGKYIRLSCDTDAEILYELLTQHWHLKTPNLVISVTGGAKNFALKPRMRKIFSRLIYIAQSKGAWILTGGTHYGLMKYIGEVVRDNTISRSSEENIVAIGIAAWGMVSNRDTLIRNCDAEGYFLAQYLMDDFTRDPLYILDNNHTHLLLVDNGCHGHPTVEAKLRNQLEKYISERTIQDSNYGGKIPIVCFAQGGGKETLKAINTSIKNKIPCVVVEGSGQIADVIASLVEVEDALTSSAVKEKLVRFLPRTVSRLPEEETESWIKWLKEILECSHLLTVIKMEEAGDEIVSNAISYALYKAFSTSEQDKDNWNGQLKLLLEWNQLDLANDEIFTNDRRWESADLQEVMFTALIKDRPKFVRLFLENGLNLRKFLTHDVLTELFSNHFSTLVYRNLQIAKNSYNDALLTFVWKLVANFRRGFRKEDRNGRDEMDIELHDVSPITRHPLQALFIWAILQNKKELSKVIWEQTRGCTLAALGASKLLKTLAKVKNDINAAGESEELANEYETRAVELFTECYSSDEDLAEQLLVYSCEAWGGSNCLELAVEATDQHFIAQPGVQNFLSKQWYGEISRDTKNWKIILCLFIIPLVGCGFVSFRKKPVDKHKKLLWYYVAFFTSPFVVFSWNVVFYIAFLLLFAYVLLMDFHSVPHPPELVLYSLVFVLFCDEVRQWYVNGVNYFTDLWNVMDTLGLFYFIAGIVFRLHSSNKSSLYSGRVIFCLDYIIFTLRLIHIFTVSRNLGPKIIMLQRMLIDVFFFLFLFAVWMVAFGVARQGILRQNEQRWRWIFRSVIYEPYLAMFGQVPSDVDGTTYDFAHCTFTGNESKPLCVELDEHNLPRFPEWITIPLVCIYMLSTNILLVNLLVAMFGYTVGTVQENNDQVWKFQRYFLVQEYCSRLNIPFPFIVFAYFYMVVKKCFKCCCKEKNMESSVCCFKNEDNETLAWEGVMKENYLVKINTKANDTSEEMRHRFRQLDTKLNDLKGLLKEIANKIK

- EC50 (hTRPM8): < 50 nM
SMILES: CSC(C)C(=O)N1CCCCC1c1ncc(-c2ccc(C(F)(F)F)cc2)[nH]1 (stereo not shown) [Compound 124, 2-(methylthio)-1-(2-(5-(4-(trifluoromethyl)phenyl)-1H-imidazol-2-yl)piperidin-1-yl)propan-1-one]
- Cooling after 1 h [1]: M (M = medium)
- Time of max. cooling [1]: 30 min
- Max. cooling [1]: M (M = medium)
- Time of max. cooling [2]: 20 min
- Max. cooling [2]: M (M = medium)
- Cooling after 1 h [2]: M (M = medium)

- EC50 (hTRPM8): < 50 nM
SMILES: CSC(C)C(=O)N1CCCCC1c1ncc(-c2ccc(C)cc2)[nH]1 (stereo not shown) [Compound 130, 2-(methylthio)-1-(2-(5-(p-toly)-1H-imidazol-2-yl)piperidin-1-yl)propan-1-one]
- Cooling after 1 h [1]: M (M = medium)
- Time of max. cooling [1]: 20 min
- Max. cooling [1]: S (S = Strong)
- Time of max. cooling [2]: 20 min
- Max. cooling [2]: S (S = Strong)
- Cooling after 1 h [2]: M (M = medium)

- EC50 (hTRPM8): < 50 nM
SMILES: CCSC(C)C(=O)N1CCCCC1c1ncc(-c2ccc(C)cc2)[nH]1 (stereo not shown) [Compound 95, 2-(ethylthio)-1-(2-(5-(p-toly)-1H-imidazol-2-yl)piperidin-1-yl)propan-1-one]
- Cooling after 1 h [1]: L (L = Low)
- Time of max. cooling [1]: 5 min
- Max. cooling [1]: M (M = medium)
- Time of max. cooling [2]: 10 min
- Max. cooling [2]: M (M = medium)
- Cooling after 1 h [2]: M (M = medium)

- EC50 (hTRPM8): < 50 nM
SMILES: CC[C@H](C)C(=O)N1CCCCC1c1ncc(-c2ccc(C)cc2)[nH]1 (stereo partly drawn) [Compound 166, (2S)-2-methyl-1-(2-(5-(p-tolyl)-1H-imidazol-2-yl)piperidin-1-yl)butan-1-one]
- Cooling after 1 h [1]: M (M = medium)
- Time of max. cooling [1]: 10 min
- Max. cooling [1]: S (S = Strong)
- Time of max. cooling [2]: 20 min
- Max. cooling [2]: S (S = Strong)
- Cooling after 1 h [2]: M (M = medium)
